The text below walks through data of ChEMBL document CHEMBL1149514, “Tetrahydrofluorenones with conformationally restricted side chains as selective estrogen receptor beta ligands” (Bioorg Med Chem Lett, 2006).

The target in one test is T1, Estrogen receptor (Homo sapiens, UniProt P03372).
T1 sequence (P03372 whole entry): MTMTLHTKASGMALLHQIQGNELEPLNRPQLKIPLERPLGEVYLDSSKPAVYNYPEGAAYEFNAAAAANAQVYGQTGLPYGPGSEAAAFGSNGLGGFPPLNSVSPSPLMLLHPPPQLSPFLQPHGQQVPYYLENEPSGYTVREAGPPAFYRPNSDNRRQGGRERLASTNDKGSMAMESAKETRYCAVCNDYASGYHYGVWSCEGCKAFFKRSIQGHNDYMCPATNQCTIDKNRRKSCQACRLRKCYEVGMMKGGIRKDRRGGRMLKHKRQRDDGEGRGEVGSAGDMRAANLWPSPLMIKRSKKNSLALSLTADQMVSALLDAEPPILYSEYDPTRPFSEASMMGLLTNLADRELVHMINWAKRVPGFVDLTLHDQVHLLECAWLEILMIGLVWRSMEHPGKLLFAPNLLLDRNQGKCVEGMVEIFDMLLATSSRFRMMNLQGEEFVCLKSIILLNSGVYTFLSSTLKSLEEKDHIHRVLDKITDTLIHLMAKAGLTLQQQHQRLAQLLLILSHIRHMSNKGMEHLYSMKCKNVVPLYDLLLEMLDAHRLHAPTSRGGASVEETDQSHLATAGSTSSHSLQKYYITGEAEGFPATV

For a further test, the target named is Estrogen receptor beta (Homo sapiens, UniProt Q92731).
Sequence of Estrogen receptor beta (Q92731 whole entry): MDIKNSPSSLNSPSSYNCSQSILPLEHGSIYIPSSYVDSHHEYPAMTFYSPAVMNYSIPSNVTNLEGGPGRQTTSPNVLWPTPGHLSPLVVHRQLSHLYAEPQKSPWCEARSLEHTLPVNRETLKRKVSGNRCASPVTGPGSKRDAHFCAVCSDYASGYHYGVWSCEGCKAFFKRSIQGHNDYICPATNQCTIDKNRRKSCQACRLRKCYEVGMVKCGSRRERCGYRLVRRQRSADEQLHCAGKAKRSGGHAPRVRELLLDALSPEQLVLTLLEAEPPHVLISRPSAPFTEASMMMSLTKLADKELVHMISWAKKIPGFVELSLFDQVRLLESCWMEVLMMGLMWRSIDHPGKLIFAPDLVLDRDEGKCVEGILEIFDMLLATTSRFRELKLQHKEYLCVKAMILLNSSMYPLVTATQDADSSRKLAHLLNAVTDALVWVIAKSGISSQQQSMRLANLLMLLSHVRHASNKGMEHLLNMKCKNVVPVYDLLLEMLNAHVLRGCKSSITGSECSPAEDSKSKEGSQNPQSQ

Description for Estrogen receptor beta: Binding affinity to human recombinant ERbeta by scintillation proximity assay

On to `CC1=C2c3ccc(O)cc3C[C@@]23CC[C@H](C3)C1=O`, for which the IC50 (commonly the point on the concentration scale where inhibition reaches its midpoint) against Estrogen receptor was 793 nM; against Estrogen receptor beta it was 12 nM.
The corresponding values for `CC[C@H]1CC[C@@H]2C[C@]13Cc1cc(O)ccc1C3=C(C)C2=O` are 310 nM and 45 nM.
On to `CCC[C@@H]1CC[C@@H]2C[C@]13Cc1cc(O)ccc1C3=C(C)C2=O`, for which the IC50 against Estrogen receptor came to 84 nM; at Estrogen receptor beta, 5 nM.
Taken in the same sequence, the figures for `CC1=C2c3ccc(O)cc3C[C@@]23CCC[C@H](C3)C1=O` were 414 nM and 11 nM.
With `CCC[C@H]1CC[C@@H]2C[C@]13Cc1cc(O)ccc1C3=C(C)C2=O`, the IC50 on Estrogen receptor was determined as 605 nM; against Estrogen receptor beta it was 141 nM.
The corresponding values for `CC[C@@H]1CC[C@@H]2C[C@]13Cc1cc(O)ccc1C3=C(C)C2=O` are 146 nM and 5 nM.
